The term MIC denotes the lowest concentration found to suppress growth. The low end stands for greater potency, the high end for weaker potency.

This note sets out measurements from DBAASP.

≈ marks a conversion by molar mass, not a printed value.

Among the test systems are Acinetobacter baumannii; Klebsiella pneumoniae; Pseudomonas aeruginosa; Aureobasidium pullulans; Bacillus megaterium; Micrococcus luteus; Escherichia coli UB1005.
Assay in all cases: ≥ marks a high value that may be exact or a test limit, other limits are often not marked, values filed in µg/mL are converted to µM
In assay [1] the test system is Acinetobacter baumannii ATCC 19606.
The subject of assay [2] is Bacillus subtilis ATCC 6051.
The test system of assay [3] is Candida albicans ATCC 90028.
The test system of assay [4] is Cryptococcus neoformans ATCC 208821.
Assay [5] relates to Escherichia coli ATCC 25922.
The test system of assay [6] is Klebsiella pneumoniae ATCC 13883.
Assay [7] relates to Klebsiella pneumoniae ATCC 700603.
For assay [8], the system named is Klebsiella pneumoniae ATCC BAA-2146.
Assay [9] has as its system Pseudomonas aeruginosa ATCC 27853.
For assay [10], the system named is Staphylococcus aureus ATCC 43300.
In assay [11] the test system is Candida albicans ATCC 10231.
The subject of assay [12] is Corynebacterium glutamicum ATCC 13032.
For assay [13], the system named is Staphylococcus aureus ATCC 9144.
Assay [14] has as its system Acinetobacter baumannii CCARM 12035.
Assay [15] deals with Acinetobacter baumannii KCTC 2508.
Assay [16] relates to Bacillus subtilis KCTC 3068.
Assay [17] has as its system Escherichia coli CCARM 1229.
Assay [18] deals with Escherichia coli KCTC 1682.
The test system of assay [19] is Pseudomonas aeruginosa CCARM 2002.
In assay [20] the test system is Pseudomonas aeruginosa KCTC 2004.
For assay [21], the system named is Salmonella typhimurium CCARM 8007.
For assay [22], the system named is Salmonella typhimurium KCTC 1926.
The subject of assay [23] is Staphylococcus aureus CCARM 3126.
The subject of assay [24] is Staphylococcus aureus KCTC 1621.
Assay [25] has as its system Staphylococcus epidermidis KCTC 1917.
The subject of assay [26] is Bacillus subtilis ATCC 23857.
Assay [27] relates to Enterococcus faecalis ATCC 29212.
For assay [28], the system named is Pseudomonas aeruginosa K799.
Assay [29] relates to Salmonella enterica subsp. enterica serovar Typhimurium ATCC 14028s.
In assay [30] the test system is Staphylococcus aureus ATCC 25923.
For assay [31], the system named is Staphylococcus epidermidis C621.

With `CC[C@H](C)[C@@H]1NC(=O)CNC(=O)[C@H](C)NC(=O)[C@H](Cc2ccc(O)cc2)NC(=O)[C@@H]2CSSC[C@H](NC1=O)C(=O)N[C@@H](Cc1ccc(O)cc1)C(=O)N[C@@H](CCCN=C(N)N)C(=O)N[C@@H](CCCN=C(N)N)C(=O)N[C@H](C(=O)N[C@@H](CCCN=C(N)N)C(=O)O)CSSC[C@H](NC(=O)[C@H](Cc1c[nH]c3ccccc13)NC(=O)[C@@H](N)CCCCN)C(=O)N[C@@H](Cc1ccccc1)C(=O)N[C@@H](CCCN=C(N)N)C(=O)N[C@@H](CCCN=C(N)N)C(=O)N2` [KWCFRRCYAGICYRRCR], the MIC in [1] was determined as 7.14 µM (≈ 16 µg/mL); against Acinetobacter baumannii, 7.14 µM (≈ 16 µg/mL); in assay [2] it was 0.112 µM (≈ 0.25 µg/mL); in assay [3] it was 7.14 µM (≈ 16 µg/mL); in assay [4], 1.79 µM (≈ 3.99 µg/mL); in assay [5] it was 0.223 µM (≈ 0.499 µg/mL). In addition, the MIC in assay [6] was 7.14 µM (≈ 16 µg/mL); in [7], 7.14 µM (≈ 16 µg/mL); in assay [8], 7.14 µM (≈ 16 µg/mL); in the assay on Klebsiella pneumoniae, greater than 7.14 µM; in assay [9], greater than 7.14 µM; in the assay with Pseudomonas aeruginosa, greater than 7.14 µM. In addition, in assay [10], the MIC is greater than 7.14 µM.

Regarding `CC(C)[C@H](NC(=O)[C@H](CCCCN)NC(=O)[C@H](C)NC(=O)[C@@H](NC(=O)[C@@H](NC(=O)[C@H](CCCN=C(N)N)NC(=O)[C@H](CCCN=C(N)N)NC(=O)[C@H](Cc1c[nH]c2ccccc12)NC(=O)[C@@H](N)Cc1c[nH]c2ccccc12)[C@@H](C)O)C(C)C)C(=O)N[C@@H](CCCN=C(N)N)C(=O)N[C@@H](CC(N)=O)C(=O)N[C@@H](C)C(=O)NCC(=O)N[C@@H](CCCN=C(N)N)C(=O)N[C@@H](CCCCN)C(N)=O` [WWRRTVAKVRNAGRK], the minimum inhibitory concentration (MIC) in the assay with Aureobasidium pullulans is no less than 100 µM; in [11] it was 100 µM (≈ 188 µg/mL); in assay [12], 0.4 µM (≈ 0.753 µg/mL); in assay [5], 6.3 µM (≈ 11.9 µg/mL); in assay [9] it was 25 µM (≈ 47.1 µg/mL); in assay [13], 12.5 µM (≈ 23.5 µg/mL).

For `CC[C@H](C)[C@H](NC(=O)[C@H](CCCCN)NC(=O)[C@H](Cc1c[nH]c2ccccc12)NC(=O)[C@@H](N)CCCN=C(N)N)C(=O)N[C@@H](Cc1ccccc1)C(=O)N[C@@H](CCCCN)C(=O)N[C@@H](CCCCN)C(=O)N[C@H](C(=O)N[C@H](C(=O)N[C@@H](CCCCN)C(=O)N[C@@H](CCCCN)C(=O)N[C@@H](C)C(N)=O)C(C)C)C(C)C` [RWKIFKKVVKKA], the minimal inhibitory concentration (MIC) was 8 µM (≈ 12.2 µg/mL) in [14]; 8 µM (≈ 12.2 µg/mL) in assay [15]; 16 µM (≈ 24.5 µg/mL) in assay [16]; 16 µM (≈ 24.5 µg/mL) in assay [17]; 8 µM (≈ 12.2 µg/mL) in assay [18]; 16 µM (≈ 24.5 µg/mL) in assay [19]. In addition, the MIC is 8 µM (≈ 12.2 µg/mL) in assay [20]; 16 µM (≈ 24.5 µg/mL) in assay [21]; no less than 32 µM in assay [22]; 16 µM (≈ 24.5 µg/mL) in assay [23]; 8 µM (≈ 12.2 µg/mL) in assay [24]; 16 µM (≈ 24.5 µg/mL) in [25].

As for `C[C@H](NC(=O)[C@H](CCCCN)NC(=O)[C@H](Cc1c[nH]c2ccccc12)NC(=O)CNC(=O)CNC(=O)[C@H](Cc1c[nH]c2ccccc12)NC(=O)[C@H](CCCCN)NC(=O)[C@H](CCCCN)NC(=O)CN)C(=O)N[C@@H](CCCCN)C(N)=O` [GKKWGGWKAK], the minimum inhibitory concentration (MIC) is no less than 54.6 µM in the assay on Aureobasidium pullulans; 3.41 µM (≈ 3.9 µg/mL) against Bacillus megaterium; no less than 109 µM in assay [26]; 109 µM (≈ 125 µg/mL) in assay [11]; 27.3 µM (≈ 31.3 µg/mL) in assay [12]; greater than 218 µM in [5]. Besides, the minimum inhibitory concentration (MIC) was no less than 218 µM in the assay with Micrococcus luteus, greater than 218 µM in assay [9] and no less than 218 µM in [13].

`CC[C@H](C)[C@H](NC(=O)[C@@H]1CSSC[C@H](NC(=O)[C@@H](NC(=O)[C@@H](N)CCCN=C(N)N)[C@@H](C)CC)C(=O)N[C@@H](CCCN=C(N)N)C(=O)N[C@@H]([C@@H](C)CC)C(=O)N[C@@H](C(C)C)C(=O)N[C@@H](C(C)C)C(=O)N[C@@H]([C@@H](C)CC)C(=O)N[C@@H](CCCN=C(N)N)C(=O)N1)C(=O)N[C@@H](CCCN=C(N)N)C(N)=O` [RICRIVVIRCIR]: the MIC in assay [27] was greater than 21.3 µM; in the assay with Escherichia coli UB1005, 2.67 µM (≈ 3.99 µg/mL); in [28], 10.7 µM (≈ 16 µg/mL); in assay [29], 5.33 µM (≈ 7.98 µg/mL); in [30], 21.3 µM (≈ 31.9 µg/mL); in assay [31] it was 5.33 µM (≈ 7.98 µg/mL).

For `CC[C@H](C)[C@@H]1NC(=O)CNC(=O)[C@H](CCCN=C(N)N)NC(=O)[C@H](Cc2ccc(O)cc2)NC(=O)[C@@H]2CSSC[C@H](NC1=O)C(=O)N[C@@H](Cc1ccc(O)cc1)C(=O)N[C@@H](CCCN=C(N)N)C(=O)N[C@@H](CCCN=C(N)N)C(=O)N[C@H](C(=O)N[C@@H](CCCN=C(N)N)C(=O)O)CSSC[C@H](NC(=O)[C@H](Cc1c[nH]c3ccccc13)NC(=O)[C@@H](N)CCCCN)C(=O)N[C@@H](Cc1ccccc1)C(=O)N[C@@H](CCCN=C(N)N)C(=O)N[C@@H](C)C(=O)N2` [KWCFRACYRGICYRRCR], the minimal inhibitory concentration (MIC) in assay [1] is 0.112 µM (≈ 0.25 µg/mL); against Acinetobacter baumannii, 0.223 µM (≈ 0.499 µg/mL); in assay [2] it was 0.112 µM (≈ 0.25 µg/mL); in assay [3], 3.57 µM (≈ 7.99 µg/mL); in [4], 0.446 µM (≈ 0.998 µg/mL); in assay [5], 0.112 µM (≈ 0.25 µg/mL). The minimal inhibitory concentration (MIC) turned out to be 0.112 µM (≈ 0.25 µg/mL) in assay [6]; 0.446 µM (≈ 0.998 µg/mL) in assay [7]; 0.446 µM (≈ 0.998 µg/mL) in assay [8]; 7.14 µM (≈ 16 µg/mL) with Klebsiella pneumoniae; 0.446 µM (≈ 0.998 µg/mL) in [9]; 0.893 µM (≈ 2 µg/mL) with Pseudomonas aeruginosa. In assay [10], the minimum inhibitory concentration (MIC) stood at 1.79 µM (≈ 3.99 µg/mL).

Turning to `CC[C@H](C)[C@H](NC(=O)[C@H](CCCCN)NC(=O)[C@H](CCCCN)NC(=O)[C@H](Cc1ccccc1)NC(=O)[C@@H](NC(=O)[C@H](CCCCN)NC(=O)[C@H](Cc1c[nH]c2ccccc12)NC(=O)[C@@H](N)CCCN=C(N)N)[C@@H](C)CC)C(=O)N[C@@H](CCC(=O)O)C(=O)N[C@@H](CCCCN)C(=O)N[C@H](C(=O)NCC(N)=O)C(C)C` [RWKIFKKIEKVG], the MIC in [14] was 16 µM (≈ 24.5 µg/mL); in [15], no less than 64 µM; in [16], no less than 64 µM; in assay [17] it was no less than 64 µM; in [18] it was 16 µM (≈ 24.5 µg/mL); in [19] it was 16 µM (≈ 24.5 µg/mL). Besides, the MIC in assay [20] was 8 µM (≈ 12.2 µg/mL); in assay [21], no less than 32 µM; in assay [22], no less than 64 µM; in assay [23] it was no less than 64 µM; in [24] it was 16 µM (≈ 24.5 µg/mL); in assay [25], no less than 64 µM.
